Source: patent EP1690531A2, “Dosage form and method for administering drug” (ALZA CORPORATION, priority 1996, dated 1998)

Legend:
[1] = Clinical study of methylphenidate delivery profiles in school children (SKAMP, CLAM, mathematics test, activity monitor); assay type: in vivo, human; details: 36 school children
Procedure: (§1) The CLAM Test is a behavior rating that indicates social conformity or rebellion as developed by Conners, Lonez, and Milch and SKAMP is a rating that also measures behavior as developed by Swanson and reported in Psychopharmacological Bulletin, Vol. 21, pp. 887-890 (1985).
(§2) The effect measurements in this study were: (1) observer ratings on SKAMP scale (during classroom time) and (2) performance on the computerized mathematics test. Each child was tested on the mathematics test before the study began, and based on this pre-test during the study, a mathematics test appropriate for each child's ability was given. The morning and evening parent CLAM assessments were used to identify unusual behaviors. The evening parent CLAM was used to determine the presence of treatment effects in the evening hours, particularly treatment effects on the time the child fell asleep, and whether the child's sleep was interrupted. All of the children also wore an activity monitor (Actigraph) which records the movements of the child throughout the day. The activity (number of movements per minute) is recorded electronically and modeled as a function of the drug effect.
The immediate release tablet and the sustained-release dosage form were compared to a sustained-release dosage form that administered methylphenidate in an ascending profile. The sustained-release ascending profile corresponds to administering 4.2 mg at zero hour, 1.1 mg at 1.5 hours, 1.1 mg at 2 hours, 1.2 mg at 2.5 hours, 1.2 mg at 3.0 hours, 1.3 mg at 3.5 hours, 1.3 mg at 4 hours, 1.5 mg at 4.5 hours, 1.5 mg at 5 hours, 1.8 mg at 5.5 hours, 1.8 mg at 6 hours, and 2.0 mg at 6.5 hours, to produce the sustained-ascending release dotted line profile seen in Figure 2.
The accompanying figures present the results of the above-described study. […]

[2] = Clinical study of sustained-ascending versus three-times-a-day immediate release methylphenidate (behavior, combined attention); assay type: in vivo, human
Procedure: as §1, §2
The results of a clinical study that comprises administering methylphenidate according to two distinct delivery programs are reported in this example. In the study, a sustained-ascending profile corresponds to administering methylphenidate as follows: 8 mg at zero hours, 1.4 mg at 1.5 hours, 1.4 mg at 2.0 hours, 1.7 mg at 2.5 hours, 1.7 mg at 3.0 hours, 2.0 mg at 3.5 hours, 2.0 mg at 4.0 hours, 2.2 mg at 4.5 hours, 2.2 mg at 5.0 hours, 2.2 mg at 5.5 hours, 2.2 mg at 6.0 hours, 2.4 mg at 6.5 hours, 2.4 mg at 7.0 hours, 2.6 mg at 7.5 hours, and 1.9 mg at 8.0 hours. The methylphenidate was administered in overcoated capsules comprising a total of 36 mg of methylphenidate with 22% in the exterior overcoat. The ascending dose was administered with the first dose at 0730 followed by ascending doses every 30 minutes until 1530 to produce the intended ascending plasma concentration. […]

With `COC(=O)C(c1ccccc1)C1CCCCN1` (stereo not drawn) [methylphenidate] the “therapeutic effect and tolerance” value ([1]; controlled-sustained ascending profile (4.2 mg at zero hour rising to 2.0 mg at 6.5 hours)) was “the desired therapeutic effect without tolerance”, the “clinical effect (activity, mathematical scores, inappropriate behavior)” value ([1]; sustained-nonascending dose, 20 mg methylphenidate (8.3 mg at zero hour then 0.9 mg every 0.5 h to 7.5 hours)) was “a decrease in activity, higher mathematical scores and a lessening of inappropriate behavior” and the acute tolerance ([1]; sustained-nonascending dose, 20 mg methylphenidate) was “development of acute tolerance”. For the same compound, the “behavior, acquired tolerance” value ([2]; sustained ascending program, 36 mg total, 0730 to 1530, 32 children with attention deficient hyperactivity disorder, Figure 7) was “absence of acquired tolerance”, the “combined attention parameter, developed tolerance” value ([2]; sustained-ascending release, 36 mg total, 32 children, Figure 8) was “essentially free of developed tolerance” and the “combined attention parameter, acquired tolerance” value ([2]; three daily immediate release, 10 mg at 0730, 1130 and 1530, 32 children, Figure 8) was “with acquired tolerance”.
